According to US20260193298A1, “SYNTHETIC PEPTIDE FOR USE IN AN IMMUNOMOLECULAR ASSAY” (BIOMÉRIEUX, priority 2022, published 2026):
Non-standard residues stand in square brackets, D forms with d. No end group written: not given here. Ado = 8-amino-2,4-dioxa octanoic acid

Legend:
[1] = system: internal control proximity probes (18D12 anti-His tag and 2G4 anti-Lys tag antibodies coupled to MML or MMC oligonucleotides); assay: Dual-recognition immunoassay (PEA) of Bitag peptide spiked in PBS-BSA buffer, qPCR readout; format: binding, mouse; settings: for Delta-Ct0-50: 0 vs 50 ng/mL peptide
Description: Proximity probes. Proximity probes were prepared by covalently linking purified PCT monoclonal antibodies to HPLC-purified oligonucleotides. […] Synthesis, modifications and HPLC-purification of the oligonucleotides were all performed by Integrated DNA Technologies (Louvain, Belgium). Antibody-oligonucleotide conjugates were generated using commercial Thunderlink kit (Abcam, Cambridge, UK), following the manufacturer's instructions, using a 5:1 oligonucleotide-to-antibody ratio. Conjugation quality was checked by running conjugates on a reducing 4-12% SDS-PAGE (Thermofisher, Waltham, MA, USA) followed by Coomassie Blue staining (Thermofisher) as recommended by the supplier's instructions (Abcam).
(§1) Proximity Extension Assay (PEA™). The Proximity extension assay protocol and the different buffers were taken over from the protocol initially described by Lundberg et al. and also from a recently developed shorter protocol (unpublished results). Proximity extension assay was performed in specific multi-well plates (Hard-Shell 96-Well Clear shell PCR Plates, BioRad, Hercule, CA, USA), in triplicate. Briefly, 5 μL of sample (PBS1x-0.1% BSA buffer or human EDTA plasma with or without rPCT and/or IC peptide) were mixed with 5 μL of a mix of the two PEA™ conjugates (500 pM each) diluted in the probe incubation buffer and incubated at 37° C. for 60 min. After probe incubation, a dilution buffer containing 40 mM of each dNTP were added. After a 5 minutes incubation step at 37° C., 96 μl extension mix containing 26 U/mL of T4 DNA Polymerase (Thermofisher) were added and incubated at 37° C. for an additional 3 minutes, followed by a heat inactivation step at 80° C.
(§2) Detection by qPCR. For qPCR detection, 4 μL of extension products were transferred to a qPCR plate and mixed with 36 μL of qPCR mix (SYBRGREEN mix, Bio-Rad) containing 0.6 μM of each PCR primer. A one-step qPCR was run with initial denaturation at 95° C. for 3 min, followed by 1 sec of denaturation at 95° C. and 10 sec annealing/extension at 63° C. for 40 cycles. Finally, a melt step was performed by increasing the temperature gradually from 60° C. to 95° C. at 0.5° C./sec.
Second, to determine the best combination of spacer size and oligonucleotide length, proximity probes were tested successively on the two Bitag 1 and Bitag 2 peptides. The first type of probes, called MML, featured a longer version of the oligonucleotides (49 and 56 bases), whilst the second type of probes, called MMC, featured a shorter version of the oligonucleotides (29 and 31 bases). For both MML and MMC, the size of the complementary sequence located at the 3′-end of each oligonucleotide was 9 nucleotides.
FIG. 2 summarizes the dual-recognition immunoassay results obtained for three concentrations of Bitag peptide (0, 5 and 50 ng/mL) spiked in PBS-BSA buffer.

[2] = system: 18D12 monoclonal antibody (anti-His tag); assay: Indirect ELISA on plates coated with Bitag peptide, detection with anti-His tag antibody; format: binding, mouse
Description: (§3) Enzyme Linked Immuno-Sorbant Assays (ELISA). After overnight sensitization with peptides diluted at 5 μg/mL in PBS buffer, pH 7.4 (Euromedex, Souffelweyersheim, France), Nunc 96-well plates (Thermofisher) were saturated for 1 h at room temperature (RT) with PBS1x-Bovine Serum Albumin 5% (BSA, Sigma-Aldrich, Saint Louis, MI, USA). After 4 washes with PBS1x-Tween20 0.1%, PBS1x-BSA 1% buffer containing the anti-tag antibody (at 1 μg/mL) was added and incubated for 1 h at 37° C. The developing with PNPP substrates (Thermofisher) was performed after 30 min of incubation at 37° C. with a 1/50 000 dilution in PBS-BSA-0.5% of an alkaline phosphatase (AP)-labeled streptavidin (Jackson Immunoresearch, Ely, UK). The absorbance level (optical density, OD) was red at 405 nm (OD405) using an Infinite M Nano+ microplate reader (Tecan, Mannedorf, Switzerland). All samples were tested in duplicate and in three independent experiments.
(§4) Selection and validation of the Bitag peptides and the proximity probes. First, to check that the anti-tag antibodies do bind to their epitopes in the context of the Bitag peptides, indirect ELISA was performed by sensitizing multiwall plates with either Bitag 1 or Bitag 2 peptides at two concentrations (1 μg/mL and 5 μg/mL). For the two coated peptides, 18D12 monoclonal antibody (anti-His tag) or 2G4 and 5F12 monoclonal antibodies (anti-Lys tag) were used for detection with an AP-labelled anti-mouse conjugate.

[3] = system: 5F12 monoclonal antibody (anti-Lys tag); assay: Indirect ELISA on plates coated with Bitag peptide, detection with anti-Lys tag antibody 5F12; format: binding, mouse; settings: 5 μg versus 1 μg of peptide
Description: as §3
Selection and validation of the Bitag peptides and the proximity probes. First, to check that the anti-tag antibodies do bind to their epitopes in the context of the Bitag peptides, indirect ELISA was performed by sensitizing multiwall plates with either Bitag 1 or Bitag 2 peptides at two concentrations (1 μg/mL and 5 μg/mL). […]

[4] = system: 2G4 monoclonal antibody (anti-Lys tag); assay: Indirect ELISA on plates coated with Bitag peptide, detection with anti-Lys tag antibody 2G4; format: binding, mouse
Description: as §3, §4

procalcitonin (rPCT) [5] = assay: Procalcitonin and internal control DRI in parallel in PBS-BSA, PCR with primers specific of the PCT DRI probes; parameters: species or system human; settings: 0 ng/mL PCT, PCT primer set
Description: as §1
(§5) Detection by qPCR. For qPCR detection, 4 μL of extension products were transferred to a qPCR plate and mixed with 36 μL of qPCR mix (SYBRGREEN mix, Bio-Rad) containing 0.6 μM of each PCR primer. A one-step qPCR was run with initial denaturation at 95° C. for 3 min, followed by 1 sec of denaturation at 95° C. and 10 sec annealing/extension at 63° C. for 40 cycles. […]

[6] = system: internal control proximity probes; assay: Internal control dual-recognition immunoassay in human plasma specimens spiked with rPCT and Bitag peptide; format: binding, mouse; settings: Bitag peptide at 50 ng/mL
Description: as §1, §5

[7] = system: internal control proximity probes; assay: Procalcitonin and internal control DRI in parallel in PBS-BSA, PCR with internal control primer set; parameters: species or system mouse; settings: rPCT 0 or 0.1 ng/mL; peptide 0 to 160 ng/mL
Description: as §1, §5

procalcitonin (rPCT) [8] = assay: Interference of Bitag 2 peptide with procalcitonin dual-recognition immunoassay in PBS-BSA buffer; parameters: species or system human
Description: as §1, §2
Interference between procalcitonin and internal control. […] The results are illustrated in FIG. 4. For 0.1 ng/mL of rPCT, no significant difference was observed across the range of peptide concentrations added to the sample (mean=34.38±0.15).

[9] = system: internal control proximity probes MMC (18D12 and 2G4); assay: Dual-recognition immunoassay (PEA) of Bitag 2 peptide spiked in human plasma, MMC probes; format: binding, mouse; settings: for loss of Delta-Ct in human plasma compared to PBS-BSA: pool of three plasma specimens
Description: Whole blood specimens were obtained from healthy donors from the French National Blood Bank (EFS, Etablissement Français du Sang, Lyon, France). Samples were selected on the basis of a negative PCT test. Fresh blood was centrifuged for five min at 20 000 g, at 4° C., using a refrigerated microcentrifuge (Eppendorf 5424R, Montesson, France). After centrifugation, the supernatant, which corresponds to the plasma, was recovered for Dual-recognition immunoassay and stored at 4° C. before use. For all biological samples, informed consent was obtained for any experimentation. All experiments were performed in compliance with the relevant laws and institutional guidelines and in accordance with the ethical standards of the Declaration of Helsinki.
as §1, §2
In order to confirm these preliminary results obtained on peptide diluted in the PBS-BSA buffer, PEA™ was performed, using MMC probes, on human plasma (pool of three plasma specimens) spiked with four concentrations of Bitag 2 peptide, from 0 to 500 ng/mL. The results are illustrated in FIG. 3a. Overall, while the assay presented a similar dynamic to that obtained in PBS-BSA buffer, Delta-Ct values appeared to be slightly lower compared to those obtained in PBS-BSA (loss of 0.26 and 0.36 for 5 ng/mL and 50 ng/mL of peptide, respectively). In addition, for 500 ng/mL, a significant loss of dynamic was observed (Delta-Ct50-500 of 0.9 versus Delta-Ct5-50 of 2.72).
Third, a Bitag 2 concentration suitable for internal control Dual-recognition immunoassay had to be chosen. […] To confirm the specificity of the results obtained with 50 ng/mL of Bitag 2 peptide, human plasma specimens were tested by Dual-recognition immunoassay after addition of 50 ng/mL of peptide (n=25 samples) or without peptide complementation (n=13 samples). According to a Mann-Whitney test, the difference between the two groups was significant (P<0.001).

MRGSHHHHHHSVDESNNNGKKKKKKSVDESL (MRGSHHHHHHSVDES[Ado][Ado][Ado]GKKKKKKSVDESL-NH2) [Bitag 2′, long His tag and long Lys tag, three spacer units; N is 8-amino-2,4-dioxa octanoic acid]
results obtained with Bitag 2 peptide repeated with this peptide ([1]; data not shown): reproduced and confirmed

MRGSHHHHHHNNGKKKKKKSV (MRGSHHHHHH[Ado][Ado]GKKKKKKSV-NH2) [Bitag 1, His tag and Lys tag separated by two Ado spacers; N is 8-amino-2,4-dioxa octanoic acid]
OD405 ([2]; 1 μg of Bitag 1 peptide, detection with 18D12): 0.617 | increase of OD405 for 5 μg of peptide ([2]; 5 μg versus 1 μg of peptide, 18D12): +0.262 | signal in the presence of peptide relative to signal without peptide ([2]; 18D12 antibody, 1 μg of Bitag 1): 5.42 times | Delta-Ct for MMC compared with MML probes ([1]; PBS-BSA buffer): higher | increase of OD405 for 5 μg of peptide [3]: +0.074 | OD405 ([4]; 1 μg of Bitag 1 peptide, detection with 2G4): 0.993 | increase of OD405 for 5 μg of peptide ([4]; 5 μg versus 1 μg of peptide, 2G4): +0.089 | signal in the presence of peptide relative to signal without peptide ([4]; 2G4 antibody, 5 μg of Bitag 1): 9.17 times

MRGSHHHHHHNNNGKKKKKKSV (MRGSHHHHHH[Ado][Ado][Ado]GKKKKKKSV-NH2) [Bitag 2, His tag and Lys tag separated by 3 Ado spacers; N is 8-amino-2,4-dioxa octanoic acid]
Delta-Ct between sample with 40 ng of peptide and sample without peptide (background noise) (procalcitonin (rPCT) [5]): 1.4 | Ct mean value for the internal control ([6]; 0 ng/mL of PCT): 33.53±0.11 | Ct mean value for the internal control ([6]; 10 ng/mL of PCT): 34.23±0.40 | gain in Delta-Ct for MMC versus MML ([1]; 5 ng/mL of peptide, PBS-BSA buffer): 2.32 | gain in Delta-Ct for MMC versus MML ([1]; 50 ng/mL of peptide, PBS-BSA buffer): 1.86 | Delta-Ct0-50 ([1]; MMC probes, PBS-BSA buffer): 7.08 | Delta-Ct0-50 ([1]; MML probes, PBS-BSA buffer): 5.22 | Delta-Ct of the combination of MMC oligonucleotides and peptide, compared with the other combinations ([1]; peptide concentrations tested (5 and 50 ng/mL), PBS-BSA): highest Delta-Ct | interference of procalcitonin on Ct with internal control PCR primer set [7]: no interference | Ct of procalcitonin DRI (procalcitonin (rPCT) [8]; 0 ng/mL rPCT, 160 ng/mL of peptide): 35.9 | Ct of procalcitonin DRI, average value for the other peptide concentrations (procalcitonin (rPCT) [8]; 0 ng/mL rPCT, peptide concentrations other than 160 ng/mL): 36.98 | Ct of procalcitonin DRI, mean across the range of peptide concentrations (procalcitonin (rPCT) [8]; 0.1 ng/mL rPCT, Bitag 2 from 0 to 200 ng/mL): 34.38±0.15 | loss of Delta-Ct in human plasma compared to PBS-BSA ([9]; 5 ng/mL of peptide, MMC probes): 0.26 | loss of Delta-Ct in human plasma compared to PBS-BSA ([9]; 50 ng/mL of peptide, MMC probes): 0.36 | Delta-Ct5-50 ([9]; human plasma, 5 vs 50 ng/mL peptide, MMC probes): 2.72 | Delta-Ct50-500 ([9]; human plasma, 50 vs 500 ng/mL peptide, MMC probes): 0.9 | dynamic range of detection ([9]; short (MMC) oligonucleotides): about 3 orders of magnitude
